The target in the test is T1, recombinantly expressed and purified TPMT (Homo sapiens, UniProt P51580).
T1 construct: made in house
T1 sequence (P51580 1-245): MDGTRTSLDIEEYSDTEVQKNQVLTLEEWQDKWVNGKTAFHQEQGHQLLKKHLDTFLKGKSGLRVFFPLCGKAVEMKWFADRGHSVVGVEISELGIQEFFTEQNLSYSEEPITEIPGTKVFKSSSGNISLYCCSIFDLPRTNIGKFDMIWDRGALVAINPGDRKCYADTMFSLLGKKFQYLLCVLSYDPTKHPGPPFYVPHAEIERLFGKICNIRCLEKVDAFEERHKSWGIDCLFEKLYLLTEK
As to the kind of experiment: Steady state kinetics with purified TPMT (substrate methylation, HPLC analysis). Conditions: compound as substrate of 3 ng/μL purified TPMT; Moco: urothione synthesis in presence of alkaline phosphatase; 6-mercaptopurine: 6-methylmercaptopurine synthesis. It is filed as biochemical.

The values below come from patent US20160160264A1, “DIAGNOSTIC IN VITRO METHOD” (UNIVERSITÄT ZU KÖLN, priority 2013, published 2016).

As usually defined, the KM is the substrate concentration at which the rate is half of its maximum. As a reminder, the kcat is the maximal rate divided by the concentration of active sites.

Description: (A) Kinetics of the urothione synthesis by TPMT in the presence of alkaline phosphatase. (B) Kinetics of the 6-methylmercaptopurine synthesis by TPMT. (C) Kinetic parameters of the kinetics shown in A and B.
The in vitro synthesis of urothione in kidney protein extracts is dependent on S-adenosylmethionine and Moco. […] Quantities used: 1.7 μg/μl kidney extract, 5 μM Moco, 500 μM SAM, 250 μM DTT in 0.1 M Tris/HCl pH7.5. The reaction was incubated for 4 h at 37° C. and then heat-denatured for 1 h at 60° for stopping and purified by means of QAE-Sepharose. The eluate was dried up and taken up in the HPLC solvent. HPLC analysis took place on a C4 Reprosil® 100 HPLC column, 150×2 mm, 5 μm particle size (Dr. Maisch GmbH) with 20 mM acetic acid and 15% methanol by isocratic elution. […] The increase of the peak at 24 min elution time indicates the formation of urothione. The increase of the peak at 31 min elution time indicates the formation of jukathione. Quantities used: 20 ng/μl TPMT, 2-16 μM Moco, 500 μM SAM, 250 μM DTT in 0.1 M Tris/HCl pH7.5. The reaction was incubated for 1 h at 37° C. and then heat-denatured for 1 h at 60° for stopping. The eluate was dried up and taken up in the HPLC solvent. HPLC analysis took place on a YMC C18 Hydrosphere@ column, 250×4 mm, 5 μm particle size with 20 mM formic acid by elution in a methanol gradient (0-25% 20 min, 1 mL/min). […] The in vitro transformation of Moco by means of liver extracts into urothione in the presence and absence of the TPMT inhibitor 3,4,5-triiodo benzoic acid is shown in FIG. 4. […] The in vitro transformation of Moco by purified TPMT into jukathione in the presence and absence of the TPMT inhibitor 3,4,5-triiodo benzoic acid is shown in FIG. 5. An HPLC chromatogram is shown of the analysis of jukathione after the incubation of purified 1 ng/μL TPMT with 500 μM SAM, 250 μM DTT and 10 μM Moco in the presence and absence of 2.5 μM 3,4,5-triiodo benzoic acid (inhibitor). […] What is depicted is the in vitro synthesis of urothione in protein extracts from RBCs from individuals with a normal TPMT activity (wild type) and persons with heterozygous mutations in the TPMT gene locus (heterozygous), and one person with a homozygous mutation (homozygous) in the TPMT gene locus. […] What is shown is the determination of the urothione content in individuals with a normal TPMT activity (wild type) and persons with heterozygous mutations in the TPMT gene locus (heterozygous), and two persons with homozygous mutations (homozygous) in the TPMT gene locus.
Urothione detection: 10 μM Moco (isolated from heat-denaturated human sulfite oxidase) are incubated in 50 mM Tris/HCl, pH 7.2, 1 mM SAM, 250 μM dithiothreitol and 1.7 μg/μL liver protein extract or 3.4 μg/μL RBCs for 4 h at 37° C. […]

Turning to `Sc1ncnc2nc[nH]c12` [6-mercaptopurine], the Michaelis-Menten constant (KM) was 69 µM and the turnover number (kcat) was 0.047 s⁻¹.
For `Nc1nc2c(c(=O)[nH]1)NC1C3=C([S][Mo](=[O])(=[O])([O-])[S]3)C(COP(=O)([O-])O)OC1N2` (stereo not shown) [Moco], in that order: 2 µM and 0.129 s⁻¹.
